Columns and labels:
[1] = test system: Acute Renal Failure Animal Model; test: Test using acute renal failure animal model (renal ischemia and reperfusion), renal function parameters; assay type: in vivo, mouse; conditions: for Cer: creatinine clearance; for FENa: fractional excretion of sodium; for KW: kidney weight
Description: A male ddY strain mouse (30 g) was used as an experimental animal. Under anesthesia with isoflurane, the right flank was incised about 2 cm to expose the kidney. After ligating the renal arteries and veins and the ureter, the right kidney was isolated.
A recovery period of 2 weeks was given, and then an acute renal failure mouse model was produced. Under anesthesia with isoflurane, the left abdomen was incised about 3 cm to expose the left kidney, and the fat around the renal arteries and veins was removed. The blood flow in the left renal arteries and veins was blocked using an atraumatic clip, and the kidney was left in ischemia for 45 minutes. The blood flow was then reperfused by removing the atraumatic clip, the kidney was returned to the abdominal cavity, and the flank was sutured. Mice similarly subjected to the steps other than the ischemia and reperfusion steps using the atraumatic clip were designated as a sham group (eight mice).
After 15 minutes of the initiation of ischemia, the vehicle, SMTP-7, SMTP-27, SMTP-44D, and edaravone were continuously administered to the femoral vein for 30 minutes.
24 hours after the ischemia and reperfusion processes, urine was collected for 24 hours using a metabolic cage, and the urinary output (UF; μL/min/kg) was measured. During collecting urine, only water was freely given. After urine collection, the body weight of each mouse was measured, and blood was collected from the abdominal aorta under anesthesia with isoflurane. After blood collection, the left kidney was isolated and the fat was removed in physiological saline. The kidney weight (KW; mg/g) was measured, and then the kidney was fixed in a 10% neutral buffered formalin solution for Hematoxylin Eosin (HE) staining.
The collected blood was centrifuged at 800×g for 15 minutes at 25° C. to collect serum. Further, the urine collected using a metabolic cage was also used to evaluate renal function. In order to evaluate parameters in the serum, blood urea nitrogen (BUN; mg/dL) was measured using a QuantiChrom Urea Assay Kit (Funakoshi Co., Ltd.). Serum creatinine concentration (Scr; mg/dL) and urinary creatinine concentration (Ucr; mg/dL) were measured using LabAssay (trademark) Creatinine (manufactured by Wako Pure Chemical Industries, Ltd.), and creatinine clearance (Ccr; mL/min/kg) was calculated. The concentrations of sodium in the serum and urine were measured using Fuji Dry Chem 7000 (manufactured by FUJIFILM Corporation), and fractional excretion of sodium (FENa; %) was calculated. Urinary albumin concentration (Ualb; mg/hr/kg) was measured using Albwel M (manufactured by Cosmo Bio Co., Ltd.).
In Table 11, the experimental results are expressed in mean±standard error in eight mice in each group. For comparison among multiple groups, firstly, one-way analysis of variance (ANOVA) was conducted, and then a Bonferroni test was conducted, if significant difference was recognized. Significant difference was recognized with a significance level of less than 5% (P<0.05).

[2] = test system: Chronic Renal Failure Animal Model; test: Test using chronic renal failure animal model (nephrectomy + acetic acid application), renal function parameters; assay type: in vivo, mouse; conditions: mean±standard error; for Urinary output / Urinary protein: 24 h urine 12 weeks after acetic acid; for BUN / sCr: evaluated 12 weeks after acetic acid; for Ccr: creatinine clearance, 12 weeks after acetic acid
Description: A male ddY strain mouse (body weight: 30 g to 40 g) was used. Under anesthesia with isoflurane, the right flank of the mouse was incised, the renal arteries and veins were ligated, and then the right kidney was isolated. After suturing, acrinol was applied to the suture site as a disinfection treatment, and enrofloxacin was subcutaneously administered at 5 mg/kg as a preventive measure against infection, and acetaminophen was subcutaneously administered at 75 mg/kg as an analgesic treatment. After a recovery period of 3 to 4 weeks, the left abdomen of the mouse was incised, 100% acetic acid was applied to both sides of the kidney 10 times. This was defined as one course, and two courses were conducted at 5 minute intervals. After suturing, postoperative treatment was conducted in the same manner as in the removal of one of the kidneys. Considering the effect of surgery, a sham group to which acetic acid was not applied was provided.
4 weeks after the application of acetic acid, SMTP-7 was administered at a dose of 10 mg/kg or 30 mg/kg. The administration was carried out three times a week for 8 consecutive weeks by intraperitoneal administration. In addition, physiological saline was similarly administered to the sham group (without acetic acid application) and the Control group (with acetic acid application).
12 weeks after the application of acetic acid, urine was collected for 24 hours using a metabolic cage, and the urinary output was measured. During collecting urine, water was freely given. After urine collection, blood was collected from the descending aorta, the collected blood was centrifuged at 3000 rpm for 15 minutes, serum was separated, and BUN (urea nitrogen) and sCr (serum creatinine value) were measured. Further, protein and creatinine in the urine were also measured to calculate creatinine clearance (Ccr). BUN was measured using Urea B-test Wako (manufactured by Wako Pure Chemical Industries, Ltd.) and a QuantiChrom Urea Assay Kit (manufactured by Funakoshi Co., Ltd.), sCr was measured using Lab Assay Creatinine (manufactured by Wako Pure Chemical Industries, Ltd.), and urinary protein was measured using a BCA Protein assay kit (Thermo Fisher Scientific).
Renal function was evaluated by measuring BUN, sCr, urinary output, and urinary protein. In addition, urinary creatinine was measured to calculate creatinine clearance (Ccr).
In Table 9, the experimental results are expressed in mean±standard error. With reference to statistically significant difference, an unpaired test between two groups (Student's t-test) was conducted for comparison between two groups, and one-way analysis of variance was conducted and then a Dunnett test was conducted for comparison among multiple groups. In all cases, a significance level of 5% or less (P<0.05) was regarded as significant difference.
The experiment and evaluation were carried out in the same manner as in the SMTP-7 (30 mg/kg) administration group, except that edaravone (30 mg/kg) was administered instead of SMTP-7 in the SMTP-7 (30 mg/kg) administration group.

[3] = 0.01 mg/kg continuous femoral vein 30 min from 15 min after start of 45 min ischemia, mean±SE, 8 mice
[4] = 0.1 mg/kg continuous femoral vein 30 min from 15 min after start of 45 min ischemia, mean±SE, 8 mice
[5] = 0.1 mg/kg, acute renal failure model
[6] = 1 mg/kg continuous femoral vein 30 min from 15 min after start of 45 min ischemia, mean±SE, 8 mice
[7] = 1 mg/kg, acute renal failure model
[8] = 10 mg/kg continuous femoral vein 30 min from 15 min after start of 45 min ischemia, mean±SE, 8 mice
[9] = 0.01 mg/kg continuous femoral vein 30 min from 15 min after start of 45 min ischemia, mean±SE, 8 mice, 0.01 mg/kg
[10] = 0.1 mg/kg continuous femoral vein 30 min from 15 min after start of 45 min ischemia, mean±SE, 8 mice, 0.1 mg/kg
[11] = 1 mg/kg continuous femoral vein 30 min from 15 min after start of 45 min ischemia, mean±SE, 8 mice, 1 mg/kg
[12] = 10 mg/kg continuous femoral vein 30 min from 15 min after start of 45 min ischemia, mean±SE, 8 mice, 10 mg/kg
[13] = 10 mg/kg intraperitoneal three times a week for 8 weeks from 4 weeks after acetic acid
[14] = 30 mg/kg intraperitoneal three times a week for 8 weeks from 4 weeks after acetic acid

Question: Which results are given for `CC(C)=CCC/C(C)=C/CC[C@@]1(C)Oc2c(c(O)cc3c2CN(CCC[C@@H](C(=O)O)N2Cc4c(cc(O)c5c4O[C@](C)(CC/C=C(\C)CCC=C(C)C)[C@@H](O)C5)C2=O)C3=O)C[C@@H]1O` [SMTP-7]?
Answer: BUN [1, 3]: 108.8 ± 26.6 mg/dL; Scr [1, 3]: 0.9 ± 0.2 mg/dL; Ualb ([1]; 0.01 mg/kg, acute renal failure model): 1.8 ± 0.3 mg/h/kg; BUN [1, 4]: 125.8 ± 28.7 mg/dL; Scr [1, 4]: 1.0 ± 0.3 mg/dL; UF [1, 5]: 0.0825 ± 0.0088 mL/min/kg; Ualb [1, 5]: 1.1 ± 0.3 mg/h/kg; BUN [1, 6]: 66.0 ± 11.3 mg/dL; Scr [1, 6]: 0.5 ± 0.1 mg/dL; UF [1, 7]: 0.0623 ± 0.0134 mL/min/kg; Ualb [1, 7]: 0.7 ± 0.2 mg/h/kg; BUN [1, 8]: 44.1 ± 2.9 mg/dL; Scr [1, 8]: 0.4 ± 0.0 mg/dL; Ualb ([1]; 10 mg/kg, acute renal failure model): 0.5 ± 0.1 mg/h/kg; Cer [1, 9]: 1.6 ± 0.3 mL/min/kg; Cer [1, 10]: 1.7 ± 0.4 mL/min/kg; Cer [1, 11]: 2.3 ± 0.4 mL/min/kg; Cer [1, 12]: 3.1 ± 0.2 mL/min/kg; FENa [1, 9]: 1.8±0.8%; FENa [1, 10]: 2.3±1.0%; FENa [1, 11]: 1.0±0.2%; FENa [1, 12]: 0.7±0.1%; KW [1, 9]: 14.5 ± 0.6 mg/g; KW [1, 10]: 13.6 ± 1.0 mg/g; KW [1, 11]: 11.2 ± 0.8 mg/g; KW [1, 12]: 11.1 ± 0.4 mg/g; Ualb ([1]; urinary albumin, 0.01 mg/kg continuous femoral vein 30 min from 15 min after start of 45 min ischemia, mean±SE, 8 mice): 1.8 ± 0.3 mg/h/kg; Ualb ([1]; urinary albumin, 0.1 mg/kg continuous femoral vein 30 min from 15 min after start of 45 min ischemia, mean±SE, 8 mice): 1.1 ± 0.3 mg/h/kg; Ualb ([1]; urinary albumin, 1 mg/kg continuous femoral vein 30 min from 15 min after start of 45 min ischemia, mean±SE, 8 mice): 0.7 ± 0.2 mg/h/kg; Ualb ([1]; urinary albumin, 10 mg/kg continuous femoral vein 30 min from 15 min after start of 45 min ischemia, mean±SE, 8 mice): 0.5 ± 0.1 mg/h/kg; Urinary output [2, 13]: 0.0986 ± 0.022 mL/min/kg; Urinary protein [2, 13]: 968 ± 137 mg/kg/day; BUN [2, 13]: 80.5 ± 13.3 mg/dL; sCr [2, 13]: 0.71 ± 0.07 mg/dL; Urinary output [2, 14]: 0.0537 ± 0.0128 mL/min/kg; Urinary protein [2, 14]: 527 ± 96.2 mg/kg/day; BUN [2, 14]: 55.1 ± 1.57 mg/dL; sCr [2, 14]: 0.60 ± 0.05 mg/dL; Ccr [2, 13]: 1.95 ± 0.23 mL/min/kg; Ccr ([2]; 30 mg/kg intraperitoneal three times a week for 8 weeks from 4 weeks after acetic acid, 30 mg/kg): 2.66 ± 0.37 mL/min/kg

Source: patent publication US20250099427A1, “Drug and Method of Treating or Preventing Renal Disease Using Drug” (Showa University, priority 2018, published 2025)
